The source of these data is ChEMBL document CHEMBL1177817, “Betulin and ursolic acid synthetic derivatives as inhibitors of Papilloma virus” (Bioorg Med Chem Lett, 2010).

Holding throughout (assay type): functional, organism-based
Assay [1] has as its system Influenza A virus. The experiment in a line: Antiviral activity against influenza A virus H5N1 assessed as inhibition of viral replication.
In another assay the test system is Human alphaherpesvirus 1. As to the kind of experiment: Antiviral activity against HSV1 assessed as inhibition of viral replication.
The subject of another assay is Influenza B virus. As to the kind of experiment: Antiviral activity against influenza B virus assessed as inhibition of viral replication.
Assay [2] deals with Influenza A virus. The experiment in a line: Antiviral activity against influenza A virus H3N2 assessed as inhibition of viral replication.
A further assay concerns Human alphaherpesvirus 2. As to the kind of experiment: Antiviral activity against HSV2 assessed as inhibition of viral replication.
The test system of assay [3] is Influenza A virus. As to the kind of experiment: Antiviral activity against influenza A virus H1N1 assessed as inhibition of viral replication.
In the next assay the test system is Hepatitis B virus. As to the kind of experiment: Antiviral activity against HBV assessed as inhibition of viral DNA replication at 10 uM.
The test system of another assay is Hepatitis C virus. The experiment in a line: Antiviral activity against HCV assessed as inhibition of viral replication. Conditions: Hepacivirus hominis.

The source made the active and inactive calls. The calls are words filed in the database; no cut-off is given here.

In the case of `C=C(C)[C@@H]1CC[C@]2(C(=O)O)CC[C@]3(C)[C@H](CC[C@@H]4[C@@]5(C)CC[C@H](OC(=O)c6cccnc6)C(C)(C)[C@@H]5CC[C@]43C)[C@@H]12`, the result in the assay with Influenza A virus [1], in the assay with Human alphaherpesvirus 1, in the assay on Influenza B virus, with Influenza A virus [2] and in the assay with Human alphaherpesvirus 2 was inactive.

With `C=C(C)[C@@H]1CC[C@]2(COC(=O)/C=C/c3ccc(OC)cc3)CC[C@]3(C)[C@H](CC[C@@H]4[C@@]5(C)CC[C@H](O)C(C)(C)[C@@H]5CC[C@]43C)[C@@H]12`, the outcome in the assay with Influenza A virus [3] was Active.

`C=C(C)[C@@H]1CC[C@]2(COCCCNCCC#N)CC[C@]3(C)[C@H](CC[C@@H]4[C@@]5(C)CC[C@H](OC(=O)c6cccnc6)C(C)(C)[C@@H]5CC[C@]43C)[C@@H]12`: the result with Influenza A virus [1], with Human alphaherpesvirus 1, with Influenza B virus, in the assay with Influenza A virus [2] and with Human alphaherpesvirus 2 was inactive.

Turning to `C[C@H]1[C@H](C)CC[C@]2(C(=O)O)CC[C@]3(C)C(=CC[C@@H]4[C@@]5(C)CC/C(=N\OCCC#N)C(C)(C)[C@@H]5CC[C@]43C)[C@H]12`, the result in the assay on Influenza A virus [1], in the assay with Human alphaherpesvirus 1, in the assay with Influenza B virus, in the assay with Influenza A virus [2] and with Human alphaherpesvirus 2 was inactive.

Take `C#C[C@@H]1CC[C@]2(CO)CC[C@]3(C)[C@H](CC[C@@H]4[C@@]5(C)CC[C@H](O)C(C)(C)[C@@H]5CC[C@]43C)[C@@H]12`: the outcome in the assay with Influenza A virus [1], in the assay on Human alphaherpesvirus 1, in the assay on Hepatitis B virus, in the assay on Influenza B virus, with Influenza A virus [2] and with Human alphaherpesvirus 2 was inactive. Also, in the assay with Hepatitis C virus, the outcome was Active.

In the case of `C=C(C)[C@@H]1CC[C@]2(COC(=O)c3cccnc3)CC[C@]3(C)[C@H](CC[C@@H]4[C@@]5(C)CC[C@H](OC(=O)c6cccnc6)C(C)(C)[C@@H]5CC[C@]43C)[C@@H]12`, the result in the assay on Influenza A virus [1], with Human alphaherpesvirus 1, in the assay on Influenza B virus, in the assay on Influenza A virus [2] and in the assay on Human alphaherpesvirus 2 was inactive.
